From US20250170155A1, “NUCLEOSIDE DERIVATIVES AND PRODRUGS THEREOF HAVING VIRAL GROWTH INHIBITORY ACTION” (Shionogi & Co., Ltd., priority 2021, published 2025)

Tests used:
Format in all cases: cell-based
[1] = test system: SARS-CoV-2 (hCoV-19/Japan/TY/WK-521/2020 strain); experiment: CPE suppression effect confirmation test (SARS-CoV-2, Vero E6/TMPRSS2 cells), antiviral activity; conditions: for EC50: Severe acute respiratory syndrome coronavirus 2, VeroE6/TMPRSS2, 72 h, read-out: SARS-CoV-2 EC50 (50% CPE inhibitory concentration), 3 days culture
[2] = Cytotoxic activity evaluation, Vero E6/TMPRSS2 cells; conditions: African green monkey, no virus
Protocol: (§1) <Operation Procedure (Cytotoxic Activity Evaluation)>
A 3- to 5-fold serial dilution series of test substances was prepared in DMSO, diluted with 2% FBS/MEM so that the concentration of DMSO was 2%, and dispensed into a 96 well plate (50 μL/well, DMSO final concentration 0.5%). • Dilution and dispensing of cells
The cells prepared to an appropriate number were seeded at 100 μL/well to the plate into which the test substance was dispensed. Thereafter, the cells were cultured in a CO2 incubator at 37° C. for 3 days. • Dispensing of CellTiter-Glo (registered trademark) 2.0 Reagent
Same as those described in the section for evaluation of antiviral activity • Measurement of luminescence intensity
(§2) Same as those described in the section for evaluation of antiviral activity
Excel, TIBCO Spotfire, or a program having equivalent calculation processing capability based on the following calculation formula.

[3] = Cytotoxic activity evaluation, RPMI 2650 cells; conditions: human, no virus, 3 to 6 days
Protocol: as §1
On the day before the compound treatment, cells prepared to an appropriate number were seeded in a 96 well plate at 100 μL/well. Thereafter, the cells were cultured in a CO2 incubator at 37° C. • Preparation of 2 μg/mL trypsin/0.5% BSA/MEM
Same as those described in the section for evaluation of antiviral activity • Dilution and dispensing of test substance
A 3- to 5-fold serial dilution series of test substances was prepared in DMSO in advance, and diluted with 2 μg/mL trypsin/0.5% BSA/MEM so that the final concentration of DMSO was 0.5% (100 to 200 μL/well). The cells were washed with MEM, and then cultured in a test substance-added medium for 3 to 6 days. Double measurement was performed for each drug. • Dispensing of resazurin solution
Same as those described in the section for evaluation of antiviral activity • Measurement of fluorescence intensity
as §2
[formula] [formula] • Calculation of Selectivity Index (SI)

[4] = test system: influenza virus (A/WSN/33 (H1N1) strain); experiment: CPE suppression effect confirmation test (influenza virus, RPMI 2650 cells), antiviral activity; conditions: for EC50: read-out: Influenza EC50 (50% CPE inhibitory concentration), A/WSN/33 (H1N1), 3 to 6 days
[5] = test system: SARS-CoV-2 (hCoV-19/Japan/TY/WK 521/2020 strain); experiment: microbe, parasite or virus in culture; conditions: HEK293T/ACE2-TMPRSS2 cells; for EC50: Severe acute respiratory syndrome coronavirus 2, HEK-293T, 72 h, read-out: SARS-CoV-2 EC50 (50% CPE inhibitory concentration), 293T-AT, 3 days culture

Row | Structure (SMILES) | SARS-CoV-2 SI (Selectivity Index) [1] | EC50 [1] | CC50 at 3 days [2] | CC50 [3] | Influenza SI (Selectivity Index) [4] | EC50 [4] | SARS-CoV-2 SI (Selectivity Index), 293T-AT [5] | EC50 [5]
1 | CN1[C@H](CO)[C@@H](O)[C@@H](O)[C@@H]1c1cc(C(N)=O)c2c(N)ncnn12.Cl [Compound I-076] | >30.7 | 16.3 µM | > 500 µM |  |  |  |  | 
2 | Cl.Nc1ncnn2c([C@@H]3N[C@H](CO)[C@@H](O)[C@H]3O)cc(-c3nc4ccccc4s3)c12 [Compound I-045] | 25.4 | 3.78 µM | 96 µM |  |  |  |  | 
3 | Nc1ncnn2c([C@@H]3N[C@H](CO)[C@@H](O)[C@H]3O)cc(-c3c[nH]nn3)c12 [Compound I-053] | 677 | 0.465 µM | 315 µM |  |  |  |  | 
4 | Nc1ncnn2c([C@@H]3N[C@H](CO)[C@@H](O)[C@H]3O)cc(-c3ncc[nH]3)c12 [Compound I-033] | >134 | 3.74 µM | > 500 µM |  |  |  |  | 
5 | Cc1nc(-c2cc([C@@H]3N[C@H](CO)[C@@H](O)[C@H]3O)n3ncnc(N)c23)c[nH]1.Cl [Compound I-047] | >10.4 | 48.2 µM | > 500 µM |  |  |  |  | 
6 | Nc1ncnn2c([C@@H]3N[C@H](CO)[C@@H](O)[C@H]3O)cc(-c3cccnc3)c12 [Compound I-041] |  |  |  | > 500 µM | >76.2 | 5.56 µM |  | 
7 | O=c1[nH]cnn2c([C@@H]3N[C@H](CO)[C@@H](O)[C@H]3O)ccc12 [Compound I-019] |  |  |  | > 500 µM | >7.62 | 65.6 µM |  | 
8 | N#C[C@@]1(c2cnc3c(N)ncnn23)O[C@H](CO)[C@@H](O)C1O (stereo partly drawn) [Compound I-042] | >6.66 | 75.1 µM | > 500 µM |  |  |  |  | 
9 | Nc1ncnc2c([C@@H]3O[C@H](CO)[C@@H](O)[C@H]3O)ccn12 [Compound I-014] |  |  |  | 13.1 µM | 69.7 | 0.188 µM |  | 
10 | Nc1ncnc2c([C@@H]3N[C@H](CO)[C@@H](O)[C@H]3O)ccn12 [Compound I-012] |  |  |  | > 500 µM | >281 | 1.78 µM |  | 
11 | Cl.Nc1ncnn2c([C@H]3N[C@@H](CO)[C@H](O)[C@@H]3O)cc(B(O)O)c12 [Compound I-032] |  |  |  | > 500 µM | >1.38 | 361 µM |  | 
12 | Nc1ncnn2c([C@@H]3N[C@@H](CO)[C@@H](O)[C@H]3F)ccc12 [Compound I-009] |  |  |  | > 500 µM | 1.23 | 406 µM |  | 
13 | Cn1cnc(-c2cc([C@@H]3N[C@H](CO)[C@@H](O)[C@H]3O)n3ncnc(N)c23)c1 [Compound I-039] | >6.02 | 83.1 µM | > 500 µM |  |  |  |  | 
14 | Cl.N/C(=N\O)c1cc([C@@H]2N[C@H](CO)[C@@H](O)[C@H]2O)n2nc(F)nc(N)c12 [Compound I-056] | >17.7 | 28.2 µM | > 500 µM |  |  |  |  | 
15 | Nc1ncnn2c([C@@H]3N[C@H](CO)[C@@H](O)[C@H]3O)cc(/C=N\O)c12 [Compound I-026] |  |  |  | > 500 µM | >518 | 0.965 µM |  | 
16 | Cl.Cn1cc(-c2cc([C@@H]3N[C@H](CO)[C@@H](O)[C@H]3O)n3ncnc(N)c23)nn1 [Compound I-040] | >5.93 | 84.3 µM | > 500 µM |  |  |  |  | 
17 | Nc1ncnc2c([C@@H]3N[C@H](CO)[C@@H](O)[C@H]3O)cnn12 [WO2006002231 Example 13_9-4, reference compound] |  |  |  |  | 4.69 | 87.8 µM |  | 

Row | Structure (SMILES) | SARS-CoV-2 SI (Selectivity Index) [1] | EC50 [1] | CC50 at 3 days [2] | CC50 [3] | Influenza SI (Selectivity Index) [4] | EC50 [4] | SARS-CoV-2 SI (Selectivity Index), 293T-AT [5] | EC50 [5]
18 | Nc1ncnn2c([C@@H]3N[C@H](CO)[C@@H](O)[C@H]3O)ccc12 [WO2014078778 Example5_30 g, reference compound] | <0.41 | > 4 µM |  |  | 73.7 | 0.471 µM | <1.34 | > 4 µM
19 | Nc1ncnn2c([C@@H]3N[C@H](CO)[C@@H](O)[C@H]3F)ccc12 [Compound I-013] |  |  |  | > 500 µM | >1.99 | 251 µM |  | 
20 | OC[C@H]1N[C@@H](c2ccn3c(NO)ncnc23)[C@H](O)[C@@H]1O [Compound I-035] |  |  |  | > 500 µM | >1.33 | 375 µM |  | 
21 | Nc1nc(F)nn2c([C@@H]3N[C@H](CO)[C@@H](O)[C@H]3O)ccc12 [Compound I-004] |  |  |  | > 500 µM | >2.06 | 243 µM |  | 
22 | Cl.Nc1ncnn2c([C@@H]3N[C@H](CO)[C@@H](O)[C@H]3O)cc(B(O)O)c12 [Compound I-011] |  |  |  | 75.1 µM | 11.2 | 6.7 µM |  | 
23 | N#C[C@@]1(c2ccc3c(N)ncnn23)O[C@H](CO)[C@@H](O)[C@H]1O [GS-441524, reference compound] |  |  |  |  |  | > 500 µM |  | 
24 | Cl.Nc1ncnn2c([C@@H]3N[C@H](CO)[C@@H](O)[C@H]3O)cc(-c3nccs3)c12 [Compound I-021] |  |  |  | > 500 µM | >20.9 | 23.9 µM |  | 
25 | Nc1ncnc2c([C@@H]3N[C@H](CO)[C@@H](O)[C@H]3O)cc(/C=N/O)n12 [Compound I-031] |  |  |  | > 500 µM | >1.46 | 343 µM |  | 
26 | Nc1ncnn2c([C@@H]3N[C@H](CO)[C@@H](O)[C@H]3O)cc(F)c12 [Compound I-006] |  |  |  | 5.38 µM | 17 | 0.316 µM |  | 
27 | CCC1[C@@H](c2ccc3c(N)ncnn23)[C@H](O)[C@H](O)[C@H]1CO (stereo partly drawn) [Compound I-007] |  |  |  | > 500 µM | 1.06 | 473 µM |  | 
28 | Cc1cnc(-c2cc([C@@H]3N[C@H](CO)[C@@H](O)[C@H]3O)n3ncnc(N)c23)s1 [Compound I-043] |  |  |  | > 500 µM | >2.46 | 203 µM |  | 
29 | Cc1nc(N)c2ccc([C@@H]3N[C@H](CO)[C@@H](O)[C@H]3O)n2n1.Cl.Cl [Compound I-005] |  |  |  | > 500 µM | >2.13 | 235 µM |  | 
30 | Nc1ncnc2c([C@@H]3O[C@H](CO)[C@@H](O)[C@H]3F)c[nH]c12 [Compound I-002] |  |  |  | > 500 µM | >105 | 4.77 µM |  | 
31 | Nc1ncnn2c([C@@H]3N[C@H](CO)[C@@H](O)[C@H]3O)cc(-c3cncs3)c12 [Compound I-027] |  |  |  | > 500 µM | >48.5 | 10.3 µM |  | 
32 | N#CCc1cc([C@@H]2N[C@H](CO)[C@@H](O)[C@H]2O)n2ncnc(N)c12 [Compound I-028] |  |  |  | 102 µM | 20.6 | 4.95 µM |  | 
33 | Nc1ncnc2c([C@@H]3N[C@H](CO)[C@@H](O)[C@H]3O)c[nH]c12 [Galidesivir, reference compound] |  | > 100 µM |  |  |  |  | <5.3 | > 20 µM
34 | Nc1ncnn2c([C@@H]3N[C@H](CO)[C@@H](O)C3(F)F)ccc12 [Compound I-003] |  |  |  | > 500 µM | >22.1 | 22.6 µM |  | 
